The structures appear in SMILES notation. pIC50: −log10 of the molar value. Where only a bound is given, the exact number is not on record here.

We go through one molecule from article PMC10983001, “Development of Cytotoxic GW7604-Zeise’s Salt Conjugates as Multitarget Compounds with Selectivity for Estrogen Receptor- Positive Tumor Cells” (Journal of Medicinal Chemistry, 2024).

One assay deals with T1, human recombinant COX-1 (Homo sapiens, UniProt P23219).
T1 construct: purchased Cayman Chemicals
It counts as biochemical. The conditions noted are these: incubation 10 min. Here is the method:
(§1) COX-1/2 inhibition was evaluated in an established assay on isolated isoenzymes. After incubation with the drugs (concentration: 20 μM) for 10 min, the remaining COX activity was measured by an enzyme-linked immunosorbent assay (ELISA).
(§2) The incubation time of the compounds with the respective isoenzymes was exactly 10 min. The results are presented as the mean ± SEM of three independent experiments, with two replicates of each experiment. […] Graphs were drawn using GraphPad Prism 8.0.

Another assay concerns the target T2, human recombinant COX-2 (Homo sapiens, UniProt P35354).
T2 construct: purchased Cayman Chemicals
T2 sequence (P35354 18-604): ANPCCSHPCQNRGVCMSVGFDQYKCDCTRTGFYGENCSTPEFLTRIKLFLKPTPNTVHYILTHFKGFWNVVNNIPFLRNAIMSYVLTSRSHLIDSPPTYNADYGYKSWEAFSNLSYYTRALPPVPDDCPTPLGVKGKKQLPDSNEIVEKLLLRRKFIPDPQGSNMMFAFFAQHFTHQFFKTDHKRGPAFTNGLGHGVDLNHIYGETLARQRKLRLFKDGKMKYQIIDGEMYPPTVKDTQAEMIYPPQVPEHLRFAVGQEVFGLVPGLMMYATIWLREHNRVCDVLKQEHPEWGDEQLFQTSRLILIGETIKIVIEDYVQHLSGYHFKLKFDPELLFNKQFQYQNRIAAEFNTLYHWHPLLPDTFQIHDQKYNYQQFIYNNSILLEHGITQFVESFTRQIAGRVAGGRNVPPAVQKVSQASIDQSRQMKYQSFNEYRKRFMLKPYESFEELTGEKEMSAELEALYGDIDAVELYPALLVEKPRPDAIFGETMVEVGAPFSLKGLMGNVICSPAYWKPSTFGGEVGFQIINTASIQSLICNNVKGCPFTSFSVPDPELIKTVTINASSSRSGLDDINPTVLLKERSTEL
It counts as biochemical. The conditions noted are these: incubation 10 min. Here is the method:
as §1, §2

Assay [1] concerns the target T3, ERβ ligand-binding domain (Homo sapiens, UniProt Q92731).
T3 construct: purchased Invitrogen
The assay can be described thus: TR-FRET ligand binding assay, isolated LBD of ERβ. Here is the method:
A modified LanthaScreen TR-FRET alpha/beta assay was performed, according to the manufacturer’s protocol (Invitrogen, Carlsbad, […]), to determine the binding affinity to the isolated LBD. […] Measurements were carried out on a multimode plate reader, Tecan Spark (Tecan, Männedorf, Switzerland). Calculations and visualization were performed with GraphPad Prism 8.0 (GraphPad Software, San Diego, CA, USA).
Background: TR-FRET usually uses a lanthanide donor and a delayed reading to cut background.

The test system of the next assay is SKBr3 cells. Briefly: MTT assay of metabolic activity, SKBr3. It counts as cell-based, human. Particulars: 72 h, MTT. Here is the method:
(§3) The GW7604-Alk-PtCl3 complexes (with exclusion of GW7604-Prop-PtCl3) were investigated for cytotoxic effects in SKBr3 (ER-negative, COX-2-positive, Figure 6), MCF-7 (ERα-positive, COX-negative, Figure 6), and noncancerous TSA-201 (human embryonal kidney) cells at concentrations of 10–30 μM using an established MTT (3-(4,5-dimethylthiazol-2-yl)-2,5-diphenyltetrazolium bromide) assay.[60],[69]
(§4) After incubation for 72 h, the amounts of surviving, metabolically active cells were quantified based on their ability to transform the water-soluble yellow dye MTT to a purple formazan, which can be analyzed by UV–vis spectroscopy.
(§5) The exponentially growing cells were seeded at a density of 1750 (MCF-7), 2000 (SKBr3), and 1250 (TSA-201) cells/well into clear flat-bottom 96-well plates in triplicate. Following 24 h of incubation at 37 °C in a humidified atmosphere (5% CO2/95% air), the compounds [freshly prepared stock solutions in DMF, diluted with DMEM to the desired concentration (final DMF concentration of 0.1% (v/v))] were added to reach the indicated concentrations. After another 72 h of incubation, the cellular metabolic activity was measured employing an MTT assay. By adding predissolved MTT reagent in PBS at a final concentration of 0.5 mg/mL, the metabolic activity can be determined via an enzymatic conversion to a purple formazan salt. After 3 h, the medium was aspirated, and 200 μL of DMSO was added to dissolve the formed formazan crystals. The absorbance was measured at 570 and 690 nm (turbidity assessment) using an EnSpire plate reader (PerkinElmer, Waltham, MA, USA). Solvent-treated cells without a compound served as the positive control. Metabolic activity was calculated by the following equation [drawing 1]

The next assay concerns TSA-201 cells. The assay can be described thus: MTT assay of metabolic activity, noncancerous TSA-201. The conditions noted are these: 72 h. It counts as cell-based, human. Here is the method: as §3, §4, §5
(Formazan colour is commonly taken as a measure of viable cells.)

For another assay, the system named is ERα in MCF-7 cells. Briefly: Western blot analysis of ER downregulation. The class given is cell-based, human. The conditions noted are these: MCF-7, 20 μM, 24 h. Here is the method:
The exponentially growing cells were seeded at a density of 2.5 × 10^6 (MCF-7) and 3.0 × 10^6 (SKBr3) cells into 75 cm^2 flasks. The cells were incubated for 24 h in a humidified atmosphere (5% CO2/95% air) at 37 °C. For downregulation experiments, a stock solution of GW7604-Pent-PtCl3 in DMF was freshly prepared and diluted with DMEM containing 10% FCS to the desired concentration [final DMF concentration of 0.1% (v/v), final complex concentration of 20 μM]. The medium in the flasks was replaced with fresh cell culture medium containing the compound, and the flasks were incubated in a humidified atmosphere at 37 °C for 24 h. Afterward, cells were harvested (cell scratcher), and samples were lysed using a modified radio immunoprecipitation assay buffer [50 mM of TRIS (pH = 8.0), 150 mM NaCl, 0.5% NP-40, 50 mM NaF, 1 mM […], 1 mM phenylmethylsulfonyl fluoride, and protease inhibitors (EDTA-free; Roche, Basel, Switzerland)]. Total protein concentration was determined by employing the Bradford assay as described above, and samples were analyzed on the JESS ProteinSimple (Bio-Techne, Minneapolis, MN, USA) according to the manufacturer’s protocol. The following antibodies were used: GAPDH (no. 2118S, cell signaling), ERα (no. 8644S, cell signaling), and COX-2 (no. 12282, cell signaling). All primary antibodies were diluted with antibody diluents provided by ProteinSimple.
(In general: Immunoblotting shows a protein as a band on a membrane.)

T3 sequence (Q92731 264-498 limits assumed): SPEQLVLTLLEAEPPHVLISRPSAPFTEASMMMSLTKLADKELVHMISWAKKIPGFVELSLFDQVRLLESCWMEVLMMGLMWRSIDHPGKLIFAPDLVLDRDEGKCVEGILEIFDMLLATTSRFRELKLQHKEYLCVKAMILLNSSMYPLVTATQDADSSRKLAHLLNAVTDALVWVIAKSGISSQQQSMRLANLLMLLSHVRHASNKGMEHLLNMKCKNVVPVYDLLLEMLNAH
T1 sequence (P23219 24-599): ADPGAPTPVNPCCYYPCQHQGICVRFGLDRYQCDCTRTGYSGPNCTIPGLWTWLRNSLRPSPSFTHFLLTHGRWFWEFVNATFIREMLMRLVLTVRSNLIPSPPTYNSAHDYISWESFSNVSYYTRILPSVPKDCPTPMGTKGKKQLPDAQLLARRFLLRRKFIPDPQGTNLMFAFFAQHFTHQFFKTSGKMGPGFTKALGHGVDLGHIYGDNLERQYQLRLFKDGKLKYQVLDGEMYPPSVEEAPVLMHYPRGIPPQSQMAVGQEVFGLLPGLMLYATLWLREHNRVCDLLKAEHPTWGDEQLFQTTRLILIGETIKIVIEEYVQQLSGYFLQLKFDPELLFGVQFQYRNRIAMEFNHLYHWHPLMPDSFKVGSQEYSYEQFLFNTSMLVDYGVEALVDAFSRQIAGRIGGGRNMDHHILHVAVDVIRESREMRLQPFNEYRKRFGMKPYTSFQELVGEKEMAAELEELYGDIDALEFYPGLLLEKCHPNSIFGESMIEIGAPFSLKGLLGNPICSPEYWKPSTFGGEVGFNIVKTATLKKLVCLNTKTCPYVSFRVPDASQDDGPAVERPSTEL

A word on the pIC50: it is the IC50 on a negative log10 scale, so that one unit is a factor of ten. In the case of `CCC(=C(c1ccc(O)cc1)c1ccc(C=CC(=O)OCCC[CH]2[CH2][Pt-]2([Cl])([Cl])[Cl])cc1)c1ccccc1.[K+]` (mixture of isomers) [GW7604-Pent-PtCl3, Potassium trichlorido[η^2-(pent-4-en-1-yl (E)-3-(4-((E/Z)-1-(4-hydroxyphenyl)-2-phenylbut-1-en-1-yl)phenyl)acrylate)]platinate(II)], the pIC50 was 5.77 on human recombinant COX-1 (0.1–20 μM); 5.74 at human recombinant COX-2 (0.1–20 μM); 8.40 in assay [1] (read-out: IC50 (ERβ), displacement from the LBS); under 4.52 in the assay with SKBr3 cells; under 4.52 with TSA-201 cells (MTT, read-out: IC50 TSA-210). For the same molecule, the “concentration at which maximum activity is reached, COX-1” value at human recombinant COX-1 came out at 10 µM. Further, the “concentration at which maximum activity is reached, COX-2” value at human recombinant COX-2 came to 10 µM. The “RBA (ERβ)” value in assay [1] (RBA(E2) = 100%) stood at 6.02%. For the same molecule, the “decrease of cell viability” value with TSA-201 cells (TSA-201, 30 μM) is recorded as “about 20%”. The “ER downregulation (SERD effect)” value in the assay with ERα in MCF-7 cells was “nor downregulated the ER content”.
